The source of these data is article PMC3775155 (Clinical Drug Investigation, 2013).

By AUC is commonly meant concentration integrated over time. What is called Cmax is the highest concentration seen after dosing. As usually defined, the AUC(0-inf) is total exposure, with the tail of the curve extrapolated.

Data set [1] is classed as in vivo, human.
The format of data set [2] is in vivo, human. This is another data set of the same source.
Data set [3] in a line: Adverse events in the bupropion study. The note with it: monotherapy period, days 1–14, n = 30. It is filed as in vivo, human.
Data set [4] is classed as in vivo, human. The following applies: for AUC / Cmax: female, human, plasma, oral; for AUC: AUC24, least-squares mean, day 21; for Cmax: least-squares mean; for AUC24 ratio (test/reference) / Cmax ratio (test/reference): with vortioxetine vs alone.
Data set [5] is described as follows: Pharmacological activity of the major metabolite. The following applies: major carboxylic acid metabolite.
Data set [6] in a line: Plasma metabolic ratio of metabolite. It is filed as in vivo. The note with it: minor hydroxyl metabolite of vortioxetine.
The nature of data set [7]: Nonclinical pharmacology study: blood–brain barrier penetration. The following applies: based on a nonclinical pharmacology study, unpublished results.
The conditions of data set [8]: multiple daily doses of vortioxetine 10 mg; CYP2D6 probe; cited from earlier work.
Where [9] appears, read: omeprazole 40 mg single dose + vortioxetine 10 mg at steady state (test), day 16.
[10] abbreviates: omeprazole 40 mg single dose alone (reference), day 1.
Setting [11] is: concomitant agent alone (reference): placebo + EE/L 30/150 μg for 21 days.
Where [12] appears, read: vortioxetine 10 mg + EE/L 30/150 μg for 21 days (test).

Molecules are shown by their SMILES. Read-outs that look alike come from different tables or passages of the source.

Turning to `COc1ccc2nc([S+]([O-])Cc3ncc(CO)c(OC)c3C)[nH]c2c1` (stereo not drawn) [5′-Hydroxyomeprazole, 5′-hydroxyomeprazole], in data set [1] (setting [9]), the “AUC∞, least-squares mean” value was 976 ng·h/mL and the “Cmax, least-squares mean” value was determined as 411 ng/mL. In data set [1] (setting [10]), the “AUC∞, least-squares mean” value was determined as 997 ng·h/mL and the “Cmax, least-squares mean” value is 392 ng/mL. Also, in data set [1] (with vortioxetine vs alone), the “AUC∞ ratio (test/reference)” value is 97.9% and the “Cmax ratio (test/reference)” value is 104%.
With `CC(NC(C)(C)C)C(=O)c1cccc(Cl)c1` (stereo not drawn) [Bupropion, bupropion], the “Cmax greater when given with vortioxetine than without” value in data set [2] (bupropion with vs without vortioxetine) is reported as 18%. Further, the AUC in data set [2] (human, plasma, 150 mg) was determined as 791 ng·h/mL. For the same compound, in data set [2] (vortioxetine 10 mg once daily + bupropion 150 mg twice daily (test), day 28), the “Cmax, least-squares mean” value is listed as 177 ng/mL. Besides, in data set [2] (with vortioxetine vs alone), the “AUC24 ratio (test/reference)” value came to 99.22% and the “Cmax ratio (test/reference)” value was 117.98%. Also, in data set [3], the Abnormal dreams is 0 number of subjects (%), the Agitation was 0 number of subjects (%), the Anxiety is given as 0 number of subjects (%) and the Any adverse event was 19 (63.3) number of subjects (%). In data set [3], the Constipation is 0 number of subjects (%), the Dizziness is reported as 3 (10.0) number of subjects (%), the Dyspepsia is 2 (6.7) number of subjects (%) and the Fatigue was 0 number of subjects (%). For the same compound, in data set [3], the Headache was 10 (33.3) number of subjects (%), the Hyperhidrosis was 1 (3.3) number of subjects (%), the Insomnia is on record as 1 (3.3) number of subjects (%) and the Nausea is on record as 5 (16.7) number of subjects (%). Further, in data set [3], the Oropharyngeal pain was 0 number of subjects (%), the Palpitations is given as 2 (6.7) number of subjects (%), the Somnolence is 3 (10.0) number of subjects (%) and the Tremor is given as 1 (3.3) number of subjects (%). In addition, in data set [3], the “URTI (upper respiratory tract infection)” value is recorded as 3 (10.0) number of subjects (%), the Vertigo is on record as 1 (3.3) number of subjects (%) and the Vomiting is given as 2 (6.7) number of subjects (%).
Take `C#C[C@]1(O)CC[C@H]2[C@@H]3CCc4cc(O)ccc4[C@H]3CC[C@@]21C` [Ethinyl estradiol, ethinyl estradiol]: the AUC in data set [4] (setting [11]) stood at 0.857 ng·h/mL. Also, in data set [4] (setting [12]), the AUC is 0.85 ng·h/mL and the Cmax was determined as 0.0816 ng/mL. In addition, in data set [4], the “AUC24 ratio (test/reference)” value turned out to be 99.19% and the “Cmax ratio (test/reference)” value stood at 93.87%.
With `C#C[C@]1(O)CC[C@H]2[C@@H]3CCC4=CC(=O)CC[C@@H]4[C@H]3CC[C@@]21CC` [Levonorgestrel, levonorgestrel], in data set [4] (setting [11]), the area under the curve (AUC) amounted to 86.8 ng·h/mL and the Cmax was 6.76 ng/mL. The Cmax in data set [4] (setting [12]) is 7.23 ng/mL. Moreover, in data set [4], the “AUC24 ratio (test/reference)” value is reported as 102.07% and the “Cmax ratio (test/reference)” value is given as 107.06%.
On to `Cc1cc(C(=O)O)ccc1Sc1ccccc1N1CCNCC1` [Lu AA34443], for which, in data set [5], the pharmacological activity entry was “pharmacologically inactive”.
Take `Cc1ccc(Sc2cc(O)ccc2N2CCNCC2)c(C)c1` [Lu AA39835]: the plasma metabolic ratio in data set [6] is recorded as no more than 4%. In data set [7], the “penetration of the blood–brain barrier” value is listed as “not expected to penetrate the blood–brain barrier”.
`COc1ccc2[nH]c([S+]([O-])Cc3ncc(C)c(OC)c3C)nc2c1` (stereo not drawn) [Omeprazole, omeprazole]: in data set [1] (human, plasma, 40 mg), the AUC(0-inf) amounted to 1110 ng·h/mL and the Cmax was found to be 550 ng/mL. In data set [1] (omeprazole with vs without vortioxetine), the “Cmax greater when given with vortioxetine than without” value is listed as 11%. In data set [1] (with vortioxetine vs alone), the “Cmax ratio (test/reference)” value came out at 111%.
Regarding `COc1ccc2c(c1)[C@]13CCCC[C@@H]1[C@H](C2)N(C)CC3` [dextromethorphan], the “decrease in plasma exposure of probe substrate by vortioxetine” value in data set [8] is reported as “up to 24%”.
